Results: patent publication US20220033434A1, “ANDROGEN RECEPTOR NUCLEIC ACIDS AND USES THEREOF” (Avidity Biosciences, Inc., priority 2016, published 2022)
In the oligonucleotide strings, read from the 5' end, every base follows the letter of its sugar. An asterisk marks phosphorothioate; unmarked linkages are phosphodiester. Other units and linkages are bracketed, terminal groups are in braces. A string of capitals states the bases alone. d = 2'-deoxy (DNA); m = 2'-O-methyl; f = 2'-fluoro

Assays:
Type in all cases: cell-based, human
AR-SV(3) = assay: AR protein knock-down by Western blot after siRNA transfection in 22RV1 cells: AR-SV(3); settings: 5 nM siRNA, 50 h post transfection, compared to controls
Method: (§1) In some instances, a set of AR siRNAs were identified that were predicted to be specific in human and non-human primates (NHP) and cross-reactive with NHPs but not rodent AR mRNA. To identify AR siRNAs that regulate both full length AR and clinically relevant AR splice variants, the search for AR siRNAs was focused primarily, but not exclusively, on exons 1, 2 and 3 of the AR gene, which are common to most AR isoforms. The resulting set of 50 AR siRNAs (Tables 1-3) was assessed in two prostate cancer lines that express high levels of either clinically relevant AR splice variants (22RV1, ATCC) or a full length AR T877A LBD mutant (LNCaP, ATCC). The response of LNCaP tumors in xenograft models to AR antagonists is known to correlate well with clinical responses.
(§2) To monitor their ability to downregulate various AR isoforms, each siRNA was formulated at a single final concentration of 5 nM with a commercially-available transfection reagent (Lipofectamine RNAiMAX, Life Technologies) according to the manufacturer's “forward transfection” instructions. At 50 h (22RV1) and 72 h (LNCaP) post transfection, cells were harvested, and lysed in RIPA buffer (Pierce) supplemented with HALT protease inhibitors (Pierce) using standard procedures. The protein concentration was determined using a BCA protein concentration kit (Pierce). To monitor AR levels in these lysates, proteins (30 ug/lane) were separated by PAGE on BOLT 4-12% Bis-Tris PA gels (Life Technologies), transferred to nitrocellulose using an iBlot dry blot system (Thermo Fisher), and probed with specific antibodies against a region of the N-terminal domain of human AR that is common in known clinically relevant splice variants (N20, Santa Cruz Biotech). A second antibody against α-Tubulin was used as control (P16, Santa Cruz Biotech). Levels of these proteins in the respective cell lysates were quantified on an Odyssey imaging system (LICOR) using appropriate secondary antibodies linked to IRDyes (800CW, 680RD).

AR FL(1) = assay: AR protein knock-down by Western blot after siRNA transfection in 22RV1 cells: AR FL(1); settings: 5 nM siRNA, 50 h post transfection, compared to controls
Method: as §1, §2

[1] = tested on: AR FL (full length AR T877A LBD mutant); assay: AR protein knock-down by Western blot after siRNA transfection in LNCaP cells: AR FL; settings: 5 nM siRNA, 72 h post transfection, compared to controls
Method: as §1, §2

AR-SV(2) = assay: AR protein knock-down by Western blot after siRNA transfection in 22RV1 cells: AR-SV(2); settings: 5 nM siRNA, 50 h post transfection, compared to controls
Method: as §1, §2

Substance	% KD AR Protein 22RV1 AR-SV(3) (AR-SV(3)) [%]	% KD AR Protein 22RV1 AR FL(1) (AR FL(1)) [%]	% KD AR Protein LNCaP AR FL [1] [%]	% KD AR Protein 22RV1 AR-SV(2) (AR-SV(2)) [%]
XD-01814: AR siRNA with chemical modification, Id # 1784; sense X05323 (SEQ ID NO: 153), antisense X05324 (SEQ ID NO: 154) (sense mCmAfAmUfUmAfCmUfUmAfGmGfGmGfGmCfAmCfUdT*dT; antisense fAfGmUfGmCfCmCfCmCfUmAfAmGfUmAfAmUfUmGdT*dT)	−30	−7	94	20
XD-01815: AR siRNA with chemical modification, Id # 1968; sense X05325 (SEQ ID NO: 155), antisense X05326 (SEQ ID NO: 156) (sense mGmCfCmCfCmAfUmUfGmGfCmCfGmAfAmUfGmCfAdT*dT; antisense fUfGmCfAmUfUmCfGmGfCmCfAmAfUmGfGmGfGmCdT*dT)	−15	−10	91	5
XD-01818: AR siRNA with chemical modification, Id # 2045; sense X05331 (SEQ ID NO: 161), antisense X05332 (SEQ ID NO: 162) (sense mCmCfCmUfUmUfCmAfAmGfGmGfAmGfGmUfUmAfCdT*dT; antisense fGfUmAfAmCfCmUfCmCfCmUfUmGfAmAfAmGfGmGdT*dT)	25	−6	93	−48
XD-01819: AR siRNA with chemical modification, Id # 2185; sense X05333 (SEQ ID NO: 163), antisense X05334 (SEQ ID NO: 164) (sense mCmUfGmCfGmUfAmCfCmAfGmAfGmUfCmGfCmGfAdT*dT; antisense fUfCmGfCmGfAmCfUmCfUmGfGmUfAmCfGmCfAmGdT*dT)	45	15	92	47
XD-01822: AR siRNA with chemical modification, Id # 2263; sense X05339 (SEQ ID NO: 169), antisense X05340 (SEQ ID NO: 170) (sense mCmCfCmAfCmGfCmUfCmGfCmAfUmCfAmAfGmCfUdT*dT; antisense fAfGmCfUmUfGmAfUmGfCmGfAmGfCmGfUmGfGmGdT*dT)	41	34	88	33
XD-01823: AR siRNA with chemical modification, Id # 2739; sense X05341 (SEQ ID NO: 171), antisense X05342 (SEQ ID NO: 172) (sense mAmCfUmGfCmCfAmGfGmGfAmCfCmAfUmGfUmUfUdT*dT; antisense fAfAmAfCmAfUmGfGmUfCmCfCmUfGmGfCmAfGmUdT*dT)	−19	−5	79	0
XD-01824: AR siRNA with chemical modification, Id # 2741; sense X05343 (SEQ ID NO: 173), antisense X05344 (SEQ ID NO: 174) (sense mUmGfCmCfAmGfGmGfAmCfCmAfUmGfUmUfUmUfGdT*dT; antisense fCfAmAfAmAfCmAfUmGfGmUfCmCfCmUfGmGfCmAdT*dT)	−44	3	45	−32
XD-01830: AR siRNA with chemical modification, Id # 2824; sense X05355 (SEQ ID NO: 185), antisense X05356 (SEQ ID NO: 186) (sense mGmUfCmAfCmUfAmUfGmGfAmGfCmUfCmUfCmAfCdT*dT; antisense fGfUmGfAmGfAmGfCmUfCmCfAmUfAmGfUmGfAmCdT*dT)	76	75	90	72
XD-01831: AR siRNA with chemical modification, Id # 2847; sense X05357 (SEQ ID NO: 187), antisense X05358 (SEQ ID NO: 188) (sense mGmGfAmAfGmCfUmGfCmAfAmGfGmUfCmUfUmCfUdT*dT; antisense fAfGmAfAmGfAmCfCmUfUmGfCmAfGmCfUmUfCmCdT*dT)	59	57	87	54
XD-01832: AR siRNA with chemical modification, Id # 2920; sense X05359 (SEQ ID NO: 189), antisense X05360 (SEQ ID NO: 190) (sense mGmCfAmCfUmAfUmUfGmAfUmAfAmAfUmUfCmCfGdT*dT; antisense fCfGmGfAmAfUmUfUmAfUmCfAmAfUmAfGmUfGmCdT*dT)	73	93	92	93
XD-01833: AR siRNA with chemical modification, Id # 2922; sense X05361 (SEQ ID NO: 191), antisense X05362 (SEQ ID NO: 192) (sense mAmCfUmAfUmUfGmAfUmAfAmAfUmUfCmCfGmAfAdT*dT; antisense fUfUmCfGmGfAmAfUmUfUmAfUmCfAmAfUmAfGmUdT*dT)	77	94	91	91
XD-01834: AR siRNA with chemical modification, Id # 2923; sense X05363 (SEQ ID NO: 193), antisense X05364 (SEQ ID NO: 194) (sense mCmUfAmUfUmGfAmUfAmAfAmUfUmCfCmGfAmAfGdT*dT; antisense fCfUmUfCmGfGmAfAmUfUmUfAmUfCmAfAmUfAmGdT*dT)	79	90	91	91
XD-01835: AR siRNA with chemical modification, Id # 2924; sense X05365 (SEQ ID NO: 195), antisense X05366 (SEQ ID NO: 196) (sense mUmAfUmUfGmAfUmAfAmAfUmUfCmCfGmAfAmGfGdT*dT; antisense fCfCmUfUmCfGmGfAmAfUmUfUmAfUmCfAmAfUmAdT*dT)	83	89	92	85
XD-01836: AR siRNA with chemical modification, Id # 2925; sense X05367 (SEQ ID NO: 197), antisense X05368 (SEQ ID NO: 198) (sense mAmUfUmGfAmUfAmAfAmUfUmCfCmGfAmAfGmGfAdT*dT; antisense fUfCmCfUmUfCmGfGmAfAmUfUmUfAmUfCmAfAmUdT*dT)	73	87	91	83
XD-01837: AR siRNA with chemical modification, Id # 2927; sense X05369 (SEQ ID NO: 199), antisense X05370 (SEQ ID NO: 200) (sense mUmGfAmUfAmAfAmUfUmCfCmGfAmAfGmGfAmAfAdT*dT; antisense fUfUmUfCmCfUmUfCmGfGmAfAmUfUmUfAmUfCmAdT*dT)	86	87	91	94
XD-01838: AR siRNA with chemical modification, Id # 2931; sense X05371 (SEQ ID NO: 201), antisense X05372 (SEQ ID NO: 202) (sense mAmAfAmUfUmCfCmGfAmAfGmGfAmAfAmAfAmUfUdT*dT; antisense fAfAmUfUmUfUmUfCmCfUmUfCmGfGmAfAmUfUmUdT*dT)	67	85	88	65
XD-01839: AR siRNA with chemical modification, Id # 2933; sense X05373 (SEQ ID NO: 203), antisense X05374 (SEQ ID NO: 204) (sense mAmUfUmCfCmGfAmAfGmGfAmAfAmAfAmUfUmGfUdT*dT; antisense fAfCmAfAmUfUmUfUmUfCmCfUmUfCmGfGmAfAmUdT*dT)	56	76	93	62
